Measured values from patent US10681909B2, “Herbicidal triazoles” (FMC Corporation, priority 2014, dated 2020).

Legend:
barnyardgrass [1] = assay: Test A preemergence; assay type: in vivo, Echinochloa crus-galli; conditions: 0 to 100 scale (0 no effect, 100 complete control)
Method in brief: (§1)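 Loam/sand soil mix; compound in non-phytotoxic solvent + surfactant. Pre: directed soil spray right after planting seed. Post: potted plants 2–10 cm, 1–2 leaf stage, sprayed with same formulation.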

foxtail, giant = assay: Test A preemergence; assay type: in vivo, Setaria faberii; conditions: 0 to 100 scale (0 no effect, 100 complete control)
Method in brief: as §1

pigweed = assay: Test A postemergence; assay type: in vivo, Amaranthus retroflexus; conditions: 0 to 100 scale (0 no effect, 100 complete control), approx. 10 d
Method in brief: as §1

wheat = assay: Test A postemergence; assay type: in vivo, Triticum aestivum; conditions: 0 to 100 scale (0 no effect, 100 complete control), approx. 10 d
Method in brief: as §1

sedge, umbrella = assay: Test B flooded paddy test; assay type: in vivo, Cyperus difformis; conditions: applied to paddy water at 2-leaf stage, visual rating after 13 to 15 d, scale 0 (no effect) to 100 (complete control)
Method in brief: (§2)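 Pots were flooded to 3 cm above the soil at treatment, and compounds were applied directly into the paddy water. That depth was held throughout. After 13 to 15 d in a greenhouse, plants were rated visually against untreated controls.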

barnyardgrass [2] = assay: Test B flooded paddy test; assay type: in vivo, Echinochloa crus-galli; conditions: applied to paddy water at 2-leaf stage, visual rating after 13 to 15 d, scale 0 (no effect) to 100 (complete control)
Method in brief: as §2

barnyardgrass [3] = assay: Test C preemergence; assay type: in vivo, Echinochloa crus-galli; conditions: for Plant response rating (scale of 0 to 100 where 0 is no effect and 100 is complete control): Barnyardgrass, preemergence; for Barnyardgrass plant response rating (0 to 100): Preemergence, visual rating after 13 to 15 d
Description: (§3) Seeds of plant species selected from blackgrass (Alopecurus myosuroides), ryegrass, Italian (Italian ryegrass, Lolium multiflorum), wheat (winter wheat, Triticum aestivum), galium (catchweed bedstraw, Galium aparine), corn (Zea mays), crabgrass, large (large crabgrass, Digitaria sanguinalis), foxtail, giant, (giant foxtail, Setaria faberii), johnsongrass (Sorghum halepense), lambsquarters (Chenopodium album), morningglory (Ipomoea coccinea), nutsedge, yellow (yellow nutsedge, Cyperus esculentus), pigweed (Amaranthus retroflexus), ragweed (common ragweed, Ambrosia elatior), soybean (Glycine max), barnyardgrass (Echinochloa crus-galli), oilseed rape (Brassica napus), waterhemp (common waterhemp, Amaranthus rudis), and velvetleaf (Abutilon theophrasti) were planted into a blend of loam soil and sand and treated preemergence with test chemicals formulated in a non-phytotoxic solvent mixture which included a surfactant. At the same time, plants selected from these crop and weed species and also chickweed (common chickweed, Stellaria media), oat, wild (wild oat, Avena fatua), and kochia (Kochia scoparia), were planted in pots containing Sunshine Redi-Earth® planting medium comprising spaghnum peat moss, vermiculite, starter nutrients and dolomitic limestone and treated with postemergence applications of test chemicals formulated in the same manner. Plants ranged in height from 2 to 18 cm (1- to 4-leaf stage) for postemergence treatments. […] A dash (-) response means no test result.

galium = assay: Test C postemergence; assay type: in vivo, Galium aparine
Description: as §3

corn = assay: Test C postemergence; assay type: in vivo, Zea mays
Description: as §3

crabgrass, large = assay: Test C postemergence; assay type: in vivo, Digitaria sanguinalis
Description: as §3

lambsquarters = assay: Test C postemergence; assay type: in vivo, Chenopodium album
Description: as §3

morningglory = assay: Test C postemergence; assay type: in vivo, Ipomoea coccinea
Description: as §3

soybean = assay: Test C postemergence; assay type: in vivo, Glycine max
Description: as §3

waterhemp = assay: Test C postemergence; assay type: in vivo, Amaranthus rudis
Description: as §3

## COc1nc(-c2ccc(F)cc2)nn1Cc1ccnc(C(F)(F)F)c1 [Compound 9, 4-[[3-(4-fluorophenyl)-5-methoxy-1H-1,2,4-triazol-1-yl]methyl]-2-(trifluoromethyl)pyridine]
Barnyardgrass [1]; Echinochloa crus-galli, pre-emergence, 240 h, 125 g ai/ha, read-out: Plant response rating, Barnyardgrass
  pest or weed control at 125 g/ha: 80%
Barnyardgrass [1]; Echinochloa crus-galli, pre-emergence, 240 h, 500 g ai/ha, approx. 10 d, read-out: Plant response rating, Barnyardgrass
  pest or weed control at 500 g/ha: 100%
foxtail, giant; Setaria faberi, pre-emergence, 240 h, 125 g ai/ha, read-out: Plant response rating, Foxtail, Giant
  pest or weed control at 125 g/ha: 100%
foxtail, giant; Setaria faberi, pre-emergence, 240 h, 500 g ai/ha, approx. 10 d, read-out: Plant response rating, Foxtail, Giant
  pest or weed control at 500 g/ha: 100%
pigweed; Amaranthus retroflexus, post-emergence, 240 h, 125 g ai/ha, read-out: Plant response rating, Pigweed
  pest or weed control at 125 g/ha: 100%
pigweed; Amaranthus retroflexus, post-emergence, 240 h, 500 g ai/ha, read-out: Plant response rating, Pigweed
  pest or weed control at 500 g/ha: 100%
wheat; Triticum aestivum, post-emergence, 240 h, 125 g ai/ha, read-out: Plant response rating, Wheat
  plant injury at 125 g/ha: 10%
wheat; Triticum aestivum, post-emergence, 240 h, 500 g ai/ha, read-out: Plant response rating, Wheat
  plant injury at 500 g/ha: 10%
sedge, umbrella; Cyperus difformis, 360 h, 125 g ai/ha, read-out: Plant response rating, Sedge, Umbrella, Flood
  pest or weed control at 125 g/ha: 80%
Barnyardgrass [2]; Echinochloa crus-galli, 360 h, 125 g ai/ha, read-out: Plant response rating, Barnyardgrass, Flood
  pest or weed control at 125 g/ha: 0%
Barnyardgrass [3]; 125 g ai/ha
  Plant response rating (scale of 0 to 100 where 0 is no effect and 100 is complete control): 70
Barnyardgrass [3]; 250 g ai/ha
  Plant response rating (scale of 0 to 100 where 0 is no effect and 100 is complete control): 85
Barnyardgrass [3]; 31 g ai/ha
  Barnyardgrass plant response rating (0 to 100): 5
Barnyardgrass [3]; 62 g ai/ha
  Barnyardgrass plant response rating (0 to 100): 35
galium; 16 g ai/ha
  Plant response rating (scale of 0 to 100 where 0 is no effect and 100 is complete control): 50
galium; 31 g ai/ha
  Plant response rating (scale of 0 to 100 where 0 is no effect and 100 is complete control): 70
galium; 62 g ai/ha
  Plant response rating (scale of 0 to 100 where 0 is no effect and 100 is complete control): 80
galium; 125 g ai/ha
  Plant response rating (scale of 0 to 100 where 0 is no effect and 100 is complete control): 65
corn; 16 g ai/ha
  Plant response rating (scale of 0 to 100 where 0 is no effect and 100 is complete control): 10
corn; 31 g ai/ha
  Plant response rating (scale of 0 to 100 where 0 is no effect and 100 is complete control): 20
corn; 62 g ai/ha
  Plant response rating (scale of 0 to 100 where 0 is no effect and 100 is complete control): 35
corn; 125 g ai/ha
  Plant response rating (scale of 0 to 100 where 0 is no effect and 100 is complete control): 20
crabgrass, large; 16 g ai/ha
  Plant response rating (scale of 0 to 100 where 0 is no effect and 100 is complete control): 10
crabgrass, large; 31 g ai/ha
  Plant response rating (scale of 0 to 100 where 0 is no effect and 100 is complete control): 10
crabgrass, large; 62 g ai/ha
  Plant response rating (scale of 0 to 100 where 0 is no effect and 100 is complete control): 25
crabgrass, large; 125 g ai/ha
  Plant response rating (scale of 0 to 100 where 0 is no effect and 100 is complete control): 25
lambsquarters; 16 g ai/ha
  Plant response rating (scale of 0 to 100 where 0 is no effect and 100 is complete control): 65
lambsquarters; 31 g ai/ha
  Plant response rating (scale of 0 to 100 where 0 is no effect and 100 is complete control): 55
lambsquarters; 62 g ai/ha
  Plant response rating (scale of 0 to 100 where 0 is no effect and 100 is complete control): 70
lambsquarters; 125 g ai/ha
  Plant response rating (scale of 0 to 100 where 0 is no effect and 100 is complete control): 85
morningglory; 16 g ai/ha
  Plant response rating (scale of 0 to 100 where 0 is no effect and 100 is complete control): 70
morningglory; 31 g ai/ha
  Plant response rating (scale of 0 to 100 where 0 is no effect and 100 is complete control): 85
morningglory; 62 g ai/ha
  Plant response rating (scale of 0 to 100 where 0 is no effect and 100 is complete control): 80
morningglory; 125 g ai/ha
  Plant response rating (scale of 0 to 100 where 0 is no effect and 100 is complete control): 75
soybean; 16 g ai/ha
  Plant response rating (scale of 0 to 100 where 0 is no effect and 100 is complete control): 15
soybean; 31 g ai/ha
  Plant response rating (scale of 0 to 100 where 0 is no effect and 100 is complete control): 25
soybean; 62 g ai/ha
  Plant response rating (scale of 0 to 100 where 0 is no effect and 100 is complete control): 30
soybean; 125 g ai/ha
  Plant response rating (scale of 0 to 100 where 0 is no effect and 100 is complete control): 30
waterhemp; 16 g ai/ha
  Plant response rating (scale of 0 to 100 where 0 is no effect and 100 is complete control): 70
waterhemp; 31 g ai/ha
  Plant response rating (scale of 0 to 100 where 0 is no effect and 100 is complete control): 65
waterhemp; 62 g ai/ha
  Plant response rating (scale of 0 to 100 where 0 is no effect and 100 is complete control): 80
waterhemp; 125 g ai/ha
  Plant response rating (scale of 0 to 100 where 0 is no effect and 100 is complete control): 85

## COc1nc(-c2ccc(Cl)cc2)nn1Cc1ccnc(C(F)(F)F)c1 [Compound 28]
Barnyardgrass [1]; 125 g ai/ha
  Plant response rating, Barnyardgrass: 30
Barnyardgrass [1]; 500 g ai/ha, approx. 10 d
  Plant response rating, Barnyardgrass: 90
foxtail, giant; 125 g ai/ha
  Plant response rating, Foxtail, Giant: 100
foxtail, giant; 500 g ai/ha, approx. 10 d
  Plant response rating, Foxtail, Giant: 100
pigweed; 125 g ai/ha
  Plant response rating, Pigweed: 100
pigweed; 500 g ai/ha
  Plant response rating, Pigweed: 100
wheat; 125 g ai/ha
  Plant response rating, Wheat: 0
wheat; 500 g ai/ha
  Plant response rating, Wheat: 10
sedge, umbrella; 250 g ai/ha
  Plant response rating, Sedge, Umbrella, Flood: 100
Barnyardgrass [2]; 250 g ai/ha
  Plant response rating, Barnyardgrass, Flood: 20
galium; 31 g ai/ha
  Plant response rating (scale of 0 to 100 where 0 is no effect and 100 is complete control): 85
galium; 62 g ai/ha
  Plant response rating (scale of 0 to 100 where 0 is no effect and 100 is complete control): 90
galium; 125 g ai/ha
  Plant response rating (scale of 0 to 100 where 0 is no effect and 100 is complete control): 90
galium; 250 g ai/ha
  Plant response rating (scale of 0 to 100 where 0 is no effect and 100 is complete control): 95
corn; 31 g ai/ha
  Plant response rating (scale of 0 to 100 where 0 is no effect and 100 is complete control): 5
corn; 62 g ai/ha
  Plant response rating (scale of 0 to 100 where 0 is no effect and 100 is complete control): 10
corn; 125 g ai/ha
  Plant response rating (scale of 0 to 100 where 0 is no effect and 100 is complete control): 15
corn; 250 g ai/ha
  Plant response rating (scale of 0 to 100 where 0 is no effect and 100 is complete control): 15
crabgrass, large; 31 g ai/ha
  Plant response rating (scale of 0 to 100 where 0 is no effect and 100 is complete control): 10
crabgrass, large; 62 g ai/ha
  Plant response rating (scale of 0 to 100 where 0 is no effect and 100 is complete control): 10
crabgrass, large; 125 g ai/ha
  Plant response rating (scale of 0 to 100 where 0 is no effect and 100 is complete control): 10
crabgrass, large; 250 g ai/ha
  Plant response rating (scale of 0 to 100 where 0 is no effect and 100 is complete control): 30
lambsquarters; 31 g ai/ha
  Plant response rating (scale of 0 to 100 where 0 is no effect and 100 is complete control): 100
lambsquarters; 62 g ai/ha
  Plant response rating (scale of 0 to 100 where 0 is no effect and 100 is complete control): 80
lambsquarters; 125 g ai/ha
  Plant response rating (scale of 0 to 100 where 0 is no effect and 100 is complete control): 98
lambsquarters; 250 g ai/ha
  Plant response rating (scale of 0 to 100 where 0 is no effect and 100 is complete control): 98
morningglory; 31 g ai/ha
  Plant response rating (scale of 0 to 100 where 0 is no effect and 100 is complete control): 70
morningglory; 62 g ai/ha
  Plant response rating (scale of 0 to 100 where 0 is no effect and 100 is complete control): 60
morningglory; 125 g ai/ha
  Plant response rating (scale of 0 to 100 where 0 is no effect and 100 is complete control): 65
morningglory; 250 g ai/ha
  Plant response rating (scale of 0 to 100 where 0 is no effect and 100 is complete control): 100
soybean; 31 g ai/ha
  Plant response rating (scale of 0 to 100 where 0 is no effect and 100 is complete control): 45
soybean; 62 g ai/ha
  Plant response rating (scale of 0 to 100 where 0 is no effect and 100 is complete control): 70
soybean; 125 g ai/ha
  Plant response rating (scale of 0 to 100 where 0 is no effect and 100 is complete control): 55
soybean; 250 g ai/ha
  Plant response rating (scale of 0 to 100 where 0 is no effect and 100 is complete control): 60
waterhemp; 31 g ai/ha
  Plant response rating (scale of 0 to 100 where 0 is no effect and 100 is complete control): 98
waterhemp; 62 g ai/ha
  Plant response rating (scale of 0 to 100 where 0 is no effect and 100 is complete control): 95
waterhemp; 125 g ai/ha
  Plant response rating (scale of 0 to 100 where 0 is no effect and 100 is complete control): 95
waterhemp; 250 g ai/ha
  Plant response rating (scale of 0 to 100 where 0 is no effect and 100 is complete control): 98
